This note sets out measurements from patent US20090263341A1, “SOFT ANTICHOLINERGIC ESTERS” (priority 2005, published 2009).

Structures can show the parent of a compound that is named as a salt. Where two headings read alike, the source gives them in different places.

In series [1] the test system is electrically stimulated guinea pig tracheal strips. Put plainly: Time course of anticholinergic effect in electrically stimulated guinea pig trachea.
Series [2] addresses T1, cloned human muscarinic receptor subtype M1 (Homo sapiens, UniProt P11229).
T1 sequence (P11229 1-460): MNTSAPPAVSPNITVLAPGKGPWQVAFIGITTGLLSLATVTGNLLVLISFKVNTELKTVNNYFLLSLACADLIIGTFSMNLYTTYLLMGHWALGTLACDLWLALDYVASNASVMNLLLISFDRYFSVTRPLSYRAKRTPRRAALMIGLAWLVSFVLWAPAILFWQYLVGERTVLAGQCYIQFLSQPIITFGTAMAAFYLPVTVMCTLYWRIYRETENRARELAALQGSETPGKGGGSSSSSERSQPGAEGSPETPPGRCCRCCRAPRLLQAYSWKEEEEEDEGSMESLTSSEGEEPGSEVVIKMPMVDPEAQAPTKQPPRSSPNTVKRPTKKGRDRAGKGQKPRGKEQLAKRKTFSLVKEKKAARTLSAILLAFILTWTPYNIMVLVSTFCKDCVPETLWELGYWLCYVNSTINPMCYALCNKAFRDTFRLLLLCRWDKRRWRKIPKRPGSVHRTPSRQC
Briefly: Receptor binding, [3H]NMS, cloned human muscarinic receptor M1.

Series [3] concerns the target T2, cloned human muscarinic receptor subtype M3 (Homo sapiens, UniProt P20309).
T2 construct: purchased Applied Cell Science Inc. (Rockville, Md.)
Briefly: Receptor binding, [3H]NMS, cloned human muscarinic receptor M3.

Series [4] addresses cloned human muscarinic receptor subtypes M1-M4. Briefly: Receptor binding at cloned human muscarinic receptors, values stated across subtypes (ranges, M3/M2 selectivity).
The target of series [5] is T3, cloned human muscarinic receptor subtype M4 (Homo sapiens, UniProt P08173).
T3 construct: purchased Applied Cell Science Inc. (Rockville, Md.)
T3 sequence (P08173 1-479): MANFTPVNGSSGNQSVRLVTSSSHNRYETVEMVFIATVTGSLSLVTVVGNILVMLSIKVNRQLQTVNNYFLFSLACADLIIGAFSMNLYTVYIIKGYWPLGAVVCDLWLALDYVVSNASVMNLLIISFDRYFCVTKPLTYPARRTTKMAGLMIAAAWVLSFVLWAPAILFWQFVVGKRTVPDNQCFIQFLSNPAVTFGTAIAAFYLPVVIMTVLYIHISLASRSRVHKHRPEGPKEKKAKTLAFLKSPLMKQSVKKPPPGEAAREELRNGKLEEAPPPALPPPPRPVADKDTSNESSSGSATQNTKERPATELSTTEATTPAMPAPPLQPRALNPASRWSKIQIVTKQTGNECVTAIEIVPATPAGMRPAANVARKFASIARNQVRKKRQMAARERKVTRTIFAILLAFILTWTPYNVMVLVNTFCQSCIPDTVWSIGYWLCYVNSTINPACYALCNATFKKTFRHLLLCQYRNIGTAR
Briefly: Receptor binding, [3H]NMS, cloned human muscarinic receptor M4.

Series [6] concerns the target T4, cloned human muscarinic receptor subtype M2 (Homo sapiens, UniProt P08172).
T4 sequence (P08172 1-466): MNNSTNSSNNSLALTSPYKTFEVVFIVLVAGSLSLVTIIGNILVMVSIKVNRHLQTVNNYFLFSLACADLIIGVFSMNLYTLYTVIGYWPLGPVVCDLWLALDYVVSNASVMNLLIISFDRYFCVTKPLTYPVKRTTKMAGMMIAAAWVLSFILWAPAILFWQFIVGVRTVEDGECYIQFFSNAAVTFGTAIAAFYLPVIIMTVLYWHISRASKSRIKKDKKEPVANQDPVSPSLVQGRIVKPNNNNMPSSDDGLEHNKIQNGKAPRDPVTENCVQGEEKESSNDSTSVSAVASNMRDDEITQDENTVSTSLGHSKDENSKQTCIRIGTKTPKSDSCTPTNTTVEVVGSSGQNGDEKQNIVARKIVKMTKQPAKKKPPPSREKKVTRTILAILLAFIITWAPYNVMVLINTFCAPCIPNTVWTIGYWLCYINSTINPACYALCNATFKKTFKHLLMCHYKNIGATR
Briefly: Receptor binding, [3H]NMS, cloned human muscarinic receptor M2.

The test system of series [7] is guinea pig ileum longitudinal muscle strips. Put plainly: Guinea pig ileum longitudinal muscle assay, pA2 against acetylcholine (Schild plot).
Series [8] concerns guinea pig tracheal rings. Put plainly: Guinea pig trachea assay, pA2 against carbachol (Schild plot). On the procedure: Changes in isometric tension were measured by a force displacement transducer (Experimetria, Budapest, Hungary) coupled to a Watanabe recorder. Cumulative concentration-effect curves were constructed to carbachol in the absence or presence of the antagonists. In each animal two preparations were used as time control (i.e., repeated carbachol curves in the absence of any antagonist) the remaining two preparations were used to test responses in the presence of two different concentrations of the antagonist.
Antagonists were added to the organ bath 30 min prior to commencement of the agonist concentration versus effect curves. Schild plots were constructed for the antagonists against carbachol and pA2 values as well as slope estimates were obtained.
Responses were measured as changes in isometric tension and calculated as a percentage of the maximum response attained in the initial concentration-response curve. Determination of antagonist potencies was done by constructing Schild double logarithmic plot of log (DR-1) versus −log M concentrations of the antagonist, and the slope of the plot was computed. […] Statistical significance was assessed by ANOVA followed by Dunnett test.

Series [9] relates to acetylcholine-induced bronchoconstriction. Particulars: guinea pig, in vivo.
The target in series [10] is muscarinic receptors (mainly M1) of rat brain cortex membranes (Rattus norvegicus, UniProt P08482). The class given is binding.
Series [11] relates to guinea pig ileum (M3 muscarinic receptors).
[12] abbreviates: time from washout to 20% recovery of cholinergic responses.

On to `C[N+]1(C)[C@@H]2C[C@@H](OC(=O)C(O)(c3cccs3)c3cccs3)C[C@H]1[C@@H]1O[C@@H]12` [Tiotropium, tiotropium], for which, in series [1], the “t1/5 offset” value is above 360 min and the “t1/5 onset” value is listed as 8.0 min.

On to `CCOC(=O)C[N+]1(C)CC[C@H](OC(=O)[C@](O)(c2ccccc2)C2CCCC2)C1` (mixture of isomers) [Compound (j), (2R,3′S) 3-(2-cyclopentyl-2-phenyl-2-hydroxyacetoxy)-1-(ethoxycarbonylmethyl)-1-methylpyrrolidinium bromide], for which the Ki in [2] (mean ± SD of 3 experiments, read-out: receptor binding affinity pKi, M1 (converted)) was 2.09 nM; in series [3] (mean ± SD of 3 experiments, read-out: receptor binding affinity pKi, M3 (converted)), 2.29 nM; in series [5] (mean ± SD of 3 experiments, read-out: receptor binding affinity pKi, M4 (converted)) it was 1.95 nM; in series [6] (mean ± SD of 3 experiments, read-out: receptor binding affinity pKi, M2 (converted)) it was 6.17 nM. Moreover, the “Hill slope, M1” value in series [2] (numbers in parentheses) is given as “(1.21 ± 0.33)”. Also, the “Hill slope, M3” value in series [3] (numbers in parentheses) is listed as “(1.33 ± 0.16)”. In [4], the “pKi, range over subtypes M1-M4” value is 8.2-8.7. Besides, in [4] (M3/M2 affinity ratio), the “Selectivity M3/M2 (affinity ratio)” value is given as 2.8±0.8 times. For the same compound, the “Hill slope, M4” value in series [5] (numbers in parentheses) is on record as “(1.15 ± 0.03)”. For the same compound, the “Hill slope, M2” value in series [6] (numbers in parentheses) was “(1.27 ± 0.11)”.

With `CN1[C@@H]2CC[C@H]1C[C@@H](OC(=O)C(CO)c1ccccc1)C2` (some centres unmarked) [Atropine, atropine], in [1], the “t1/5 offset” value came to 10 min and the “t1/5 onset” value stood at 2.5 min. In addition, the “pA2, Ileum” value in series [7] is 8.52.

Regarding `CCOC(=O)C[N@+]1(C)CC[C@@H](OC(=O)[C@](O)(c2ccccc2)C2CCCC2)C1` [Compound (m), (2R,1′R,3′R) 3-(2-cyclopentyl-2-phenyl-2-hydroxyacetoxy)-1-(ethoxycarbonylmethyl)-1-methylpyrrolidinium bromide], the “pA2, Trachea” value in series [8] (against carbachol, tissue from four animals) is 8.12. Moreover, the “effect on acetylcholine-induced bronchoconstriction” value in [9] is reported as “protective effect”. In [10] (Table 8), this compound gave a Hill slope of −0.93 ± 0.08. The “pA2, Ileum” value in [7] (tissue samples from four animals) amounted to 8.48.

`C[N+]1(CC(=O)OCC(Cl)(Cl)Cl)[C@@H]2C[C@@H](OC(=O)C(O)(c3cccs3)c3cccs3)C[C@H]1[C@@H]1O[C@@H]12` (some centres unmarked) (as salt: bromide) returned a melting point of 105 °C.

Turning to `C[N+]1(C)[C@@H]2C[C@@H](OC(=O)[C@H](CO)c3ccccc3)C[C@H]1[C@@H]1O[C@@H]12` [scopolamine methyl bromide, scopolamine methylbromide, reference compound], the “Hill slope, M2” value in [6] is recorded as “(1.02 ± 0.02)”.

In the case of `C[N+]1(CC(=O)O)[C@@H]2C[C@@H](OC(=O)C(O)(c3cccs3)c3cccs3)C[C@H]1[C@@H]1O[C@@H]12` (stereo partly drawn) (as salt: salt) [Compound (aa), 6β,7β-epoxy-3β-hydroxy-8-carboxymethyl-8-methyl-1αH,5αH-tropanuim, di-2-thienylglycolate inner salt], the melting point is 158 to 165 °C (dec.).

For the compound `C[N+]1(C)CCC(OC(=O)C(O)(c2ccccc2)C2CCCC2)C1.[Br-]` (mixture of isomers) [glycopyrrolate, 3-(2-cyclopentyl-2-phenyl-2-hydroxyacetoxy)-1,1-dimethylpyrrolidinium bromide, reference compound], the “Hill slope, M1” value in series [2] is “(1.37 ± 0.20)”. In series [11], this compound yielded a pA2 of 8.57±0.12. In addition, the “pA2, Trachea” value in series [8] is given as 9.43. Also, the “Hill slope, M3” value in series [3] is “(1.14 ± 0.25)”. The “Hill slope, M4” value in series [5] is “(1.02 ± 0.01)”. In series [9], the “effect on acetylcholine-induced bronchoconstriction” value is “protective effect”. Moreover, the “pA2, Ileum” value in series [7] is recorded as 9.66. The “Hill slope, M2” value in series [6] was “(0.99 ± 0.11)”.

For the compound `CCOC(=O)C[N+]1(C)[C@@H]2C[C@@H](OC(=O)C(O)(c3cccs3)c3cccs3)C[C@H]1[C@@H]1O[C@@H]12` (stereo partly drawn) [Compound (w), 6β,7β-epoxy-3,8-hydroxy-8-ethoxycarbonylmethyl-8-methyl-1αH,5αH-tropaniun bromide, di-2-thienylglycolate], the “pA2, Trachea” value in [8] was 8.82. Also, the “t1/5 onset” value in series [1] (onset of inhibition) stood at 0.6 min. Also, the “t1/5 offset” value in series [1] (setting [12]) is reported as 60 min. Besides, in series [10], the “Hill slope” value is reported as −1.00 ± 0.04 and the Ki came out at 7.2 ± 0.5 nM.

For `CC(C)[N+]1(C)[C@@H]2CC[C@H]1CC(OC(=O)C(CO)c1ccccc1)C2.[Br-]` (some centres unmarked) [Ipratropium Br, ipratropium bromide, reference compound], the “pA2, Trachea” value in [8] is 9.18. The “t1/5 onset” value in series [1] is 3.0 min.

Compound `CCOC(=O)C[N+]1(C)[C@@H]2C[C@@H](OC(=O)C(O)(c3cccs3)c3cccs3)C[C@H]1[C@@H]1O[C@@H]12` (stereo partly drawn) (as salt: bromide) [Compound (w), 6β,7β-epoxy-3,8-hydroxy-8-ethoxycarbonylmethyl-8-methyl-1αH,5αH-tropaniun bromide, di-2-thienylglycolate] came in with a melting point of 115 °C.

For `C[N+]1(CC(=O)O)[C@@H]2C[C@@H](OC(=O)C(O)(c3cccs3)c3cccs3)C[C@H]1[C@@H]1O[C@@H]12` (stereo partly drawn) [Compound (aa), 6β,7β-epoxy-3β-hydroxy-8-carboxymethyl-8-methyl-1αH,5αH-tropanuim, di-2-thienylglycolate inner salt], in [1] (onset of inhibition), the “t1/5 onset” value was determined as 0.9 min. Further, the “t1/5 offset” value in series [1] (setting [12]) stood at 27 min.

Compound `CCOC(=O)C[N@@+]1(C)CC[C@@H](OC(=O)[C@](O)(c2ccccc2)C2CCCC2)C1` [Compound (n), (2R,1′S,3′R) 3-(2-cyclopentyl-2-phenyl-2-hydroxyacetoxy)-1-(ethoxycarbonylmethyl)-1-methylpyrrolidinium bromide] had a Hill slope in [10] (Table 8) of −1.07 ± 0.02.
